Test [1] relates to vasopressor response to AVP. In words: Antagonism to the vasopressor response (Dyckes et al.). The following applies: estimated in vivo pA2 (Schild); effective dose / 67 mL/kg; (n) in parentheses. On the procedure:
Antagonism to the vasopressor response was estimated in accordance with Dyckes et al., J. Med. Chem., vol. 17 (1974) at 969. The values are expressed as pA2 values, defined by Schild et al., Br. J. Pharmacol., vol. 2 (1947) at 189.
(§1) Antagonistic potencies were determined and expressed as "effective doses" and as pA2 values. The "effective dose" is defined as the dose (in nanomoles per kilogram) that reduces the response seen from 2x units of agonist injected 20 min after the dose of antagonist to the response with 1x units of agonist.

Test [2] deals with antidiuretic response to ADH (arginine vasopressin). In words: Antagonism of the antidiuretic response to ADH (anti-antidiuretic potency) in ethanol-anesthetized water-loaded rats. The following applies: estimated in vivo pA2 = negative logarithm of effective dose divided by estimated volume of distribution (67 mL/kg); (n) in parentheses. On the procedure:
Activity as antidiuretic agonists was determined by intravenous injection of compounds being evaluated into ethanol-anesthesized water-loaded rats in accordance with Sawyer et al., Endocrinology, vol. 63 (1958) at 694.
as §1

*1 amine or outer side, *2 acyl side, *3 side chain or, on linkers, in order; H or OH if unused. Where a SMILES comes first, the peptide text is derived from it. Bridges are numbered along the chain shown (N, C = ends). [ ]: non-standard residue; d: D form. The star is where a group is joined. X1 = O=C(CC1(S[*:2])CCCCC1)[*:1]; Propyl = CCC*; iPr = CC(C)*

For the compound `CC(C)Oc1ccc(C[C@@H]2NC(=O)CC3(CCCCC3)SSC[C@@H](C(=O)N3CCC[C@H]3C(=O)N[C@@H](CCCNC(=N)N)C(=O)NCC(N)=O)NC(=O)[C@H](CC(N)=O)NC(=O)[C@H](C(C)C)NC(=O)[C@H](Cc3ccccc3)NC2=O)cc1` [d(CH2)5 Tyr(i-Pr) VAVP] (Y(iPr)FVNCPRG-NH2; linker N-5 via X1), in test [1], the “Antivasopressor pA2” value is given as 8.36 ± 0.09. Also, in test [2], the “Anti-Antidiuretic pA2” value is recorded as 7.32 ± 0.06. Taken in the same sequence, the figures for `CC[C@@H](C)[C@H]1NC(=O)CC2(CCCCC2)SSC[C@@H](C(=O)N2CCC[C@H]2C(=O)N[C@@H](CCCNC(=N)N)C(=O)NCC(N)=O)NC(=O)[C@H](CC(N)=O)NC(=O)[C@H](C(C)C)NC(=O)[C@H](Cc2ccccc2)NC1=O` [d(CH2)5 [D-Ile^2] VAVP, [1-(β-mercapto-β,β-cyclopentamethylenepropionic acid), 2-D-isoleucine, 4-valine]-arginine vasopressin] ([dI]FVNCPRG-NH2; linker N-5 via X1) were 6.94 ± 0.08 and 7.98 ± 0.05. With `CC(C)[C@@H]1NC(=O)[C@H](Cc2ccccc2)NC(=O)[C@@H](Cc2ccccc2)NC(=O)CC2(CCCCC2)SSC[C@@H](C(=O)N2CCC[C@H]2C(=O)N[C@H](CCCNC(=N)N)C(=O)NCC(N)=O)NC(=O)[C@H](CC(N)=O)NC1=O` [d(CH2)5 D-Phe VDAVP, [1-(β-mercapto-β,β-cyclopentamethylenepropionic acid), 2-D-phenylalanine, 4-valine, 8-D-arginine] vasopressin] ([dF]FVNCP[dR]G-NH2; linker N-5 via X1), the “Antivasopressor pA2” value in test [1] is 7.98 ± 0.07. Besides, the “Anti-Antidiuretic pA2” value in test [2] is listed as 7.07 ± 0.10. Taken in the same sequence, the figures for `CCCOc1ccc(C[C@@H]2NC(=O)CC3(CCCCC3)SSC[C@@H](C(=O)N3CCC[C@H]3C(=O)N[C@@H](CCCNC(=N)N)C(=O)NCC(N)=O)NC(=O)[C@H](CC(N)=O)NC(=O)[C@H](C(C)C)NC(=O)[C@H](Cc3ccccc3)NC2=O)cc1` [d(CH2)5 Tyr(n-Pr) VAVP] (Y(Propyl)FVNCPRG-NH2; linker N-5 via X1) were 8.22 ± 0.04 and 7.29 ± 0.07. Taken in the same sequence, the figures for `CCCOc1ccc(C[C@@H]2NC(=O)CC3(CCCCC3)SSC[C@@H](C(=O)N3CCC[C@H]3C(=O)N[C@H](CCCNC(=N)N)C(=O)NCC(N)=O)NC(=O)[C@H](CC(N)=O)NC(=O)[C@H](C(C)C)NC(=O)[C@H](Cc3ccccc3)NC2=O)cc1` [d(CH2)5 Tyr(n-Pr) VDAVP] (Y(Propyl)FVNCP[dR]G-NH2; linker N-5 via X1) were 7.86 ± 0.10 and 6.67 ± 0.05. Taken in the same sequence, the figures for `CC(C)[C@@H]1NC(=O)[C@H](Cc2ccccc2)NC(=O)[C@@H](C(C)C)NC(=O)CC2(CCCCC2)SSC[C@@H](C(=O)N2CCC[C@H]2C(=O)N[C@@H](CCCNC(=N)N)C(=O)NCC(N)=O)NC(=O)[C@H](CC(N)=O)NC1=O` [d(CH2)5 [D-Val^2] VAVP, [1-(β-mercapto-β,β-cyclopentamethylenepropionic acid), 2-D-valine, 4-valine]-arginine vasopressin] ([dV]FVNCPRG-NH2; linker N-5 via X1) were 6.41 ± 0.05 and 7.48 ± 0.06.

`CCOc1ccc(C[C@@H]2NC(=O)CC3(CCCCC3)SSC[C@@H](C(=O)N3CCC[C@H]3C(=O)N[C@H](CCCNC(=N)N)C(=O)NCC(N)=O)NC(=O)[C@H](CC(N)=O)NC(=O)[C@H](C(C)C)NC(=O)[C@H](Cc3ccccc3)NC2=O)cc1` [d(CH2)5 Tyr(Et) VDAVP] (Y(Et)FVNCP[dR]G-NH2; linker N-5 via X1): in test [1], the “Antivasopressor pA2” value is listed as 8.31 ± 0.05. Moreover, in test [2], the “Anti-Antidiuretic pA2” value is given as 7.10 ± 0.08. With `CC(C)[C@@H]1NC(=O)[C@H](Cc2ccccc2)NC(=O)[C@@H](Cc2ccccc2)NC(=O)CC2(CCCCC2)SSC[C@@H](C(=O)N2CCC[C@H]2C(=O)N[C@@H](CCCNC(=N)N)C(=O)NCC(N)=O)NC(=O)[C@H](CC(N)=O)NC1=O` [d(CH2)5 D-Phe VAVP, [1-(β-mercapto-β,β-cyclopentamethylenepropionicacid), 2-D-phenylalanine, 4-valine]-arginine vasopressin] ([dF]FVNCPRG-NH2; linker N-5 via X1), the “Antivasopressor pA2” value in test [1] is 8.06 ± 0.03. Besides, in test [2], the “Anti-Antidiuretic pA2” value was 8.07 ± 0.09. On the same counts, the results for `CC(C)Oc1ccc(C[C@@H]2NC(=O)CC3(CCCCC3)SSC[C@@H](C(=O)N3CCC[C@H]3C(=O)N[C@H](CCCNC(=N)N)C(=O)NCC(N)=O)NC(=O)[C@H](CC(N)=O)NC(=O)[C@H](C(C)C)NC(=O)[C@H](Cc3ccccc3)NC2=O)cc1` [d(CH2)5 Tyr(i-Pr) VDAVP] (Y(iPr)FVNCP[dR]G-NH2; linker N-5 via X1) are 8.41 ± 0.08 and 6.88 ± 0.07. As to `COc1ccc(C[C@H]2NC(=O)CC3(CCCCC3)SSC[C@@H](C(=O)N3CCC[C@H]3C(=O)N[C@@H](CCCNC(=N)N)C(=O)NCC(N)=O)NC(=O)[C@H](CC(N)=O)NC(=O)[C@H](C(C)C)NC(=O)[C@H](Cc3ccccc3)NC2=O)cc1` [d(CH2)5 --D-Tyr(Me) VAVP] ([dY](Me)FVNCPRG-NH2; linker N-5 via X1), in test [1], the “Antivasopressor pA2” value is on record as 8.48 ± 0.08. Also, in test [2], the “Anti-Antidiuretic pA2” value is given as 7.77 ± 0.07.

Take `CC(C)[C@@H]1NC(=O)[C@H](Cc2ccccc2)NC(=O)[C@@H](Cc2ccc(O)cc2)NC(=O)CC2(CCCCC2)SSC[C@@H](C(=O)N2CCC[C@H]2C(=O)N[C@@H](CCCNC(=N)N)C(=O)NCC(N)=O)NC(=O)[C@H](CC(N)=O)NC1=O` [d(CH2)5 D-Tyr VAVP, [1-(β-mercapto-β,β-cyclopentamethylenepropionic acid), 2-D-tyrosine, 4-valine]-arginine vasopressin] ([dY]FVNCPRG-NH2; linker N-5 via X1): the “Antivasopressor pA2” value in test [1] was 8.41 ± 0.11. Further, the “Anti-Antidiuretic pA2” value in test [2] is 7.51 ± 0.08. With `CCOc1ccc(C[C@H]2NC(=O)CC3(CCCCC3)SSC[C@@H](C(=O)N3CCC[C@H]3C(=O)N[C@@H](CCCNC(=N)N)C(=O)NCC(N)=O)NC(=O)[C@H](CC(N)=O)NC(=O)[C@H](C(C)C)NC(=O)[C@H](Cc3ccccc3)NC2=O)cc1` [d(CH2)5 --D-Tyr(Et) VAVP] ([dY](Et)FVNCPRG-NH2; linker N-5 via X1), the “Antivasopressor pA2” value in test [1] is listed as 8.22 ± 0.12. Besides, the “Anti-Antidiuretic pA2” value in test [2] is 7.81 ± 0.07. Taken in the same sequence, the figures for `COc1ccc(C[C@@H]2NC(=O)CC3(CCCCC3)SSC[C@@H](C(=O)N3CCC[C@H]3C(=O)N[C@@H](CCCNC(=N)N)C(=O)NCC(N)=O)NC(=O)[C@H](CC(N)=O)NC(=O)[C@H](C(C)C)NC(=O)[C@H](Cc3ccccc3)NC2=O)cc1` [d(CH2)5 Tyr(Me) VAVP] (Y(Me)FVNCPRG-NH2; linker N-5 via X1) were 8.32 ± 0.08 and 7.35 ± 0.06. For the compound `CC(C)[C@@H]1NC(=O)[C@H](Cc2ccccc2)NC(=O)[C@@H](C)NC(=O)CC2(CCCCC2)SSC[C@@H](C(=O)N2CCC[C@H]2C(=O)N[C@@H](CCCNC(=N)N)C(=O)NCC(N)=O)NC(=O)[C@H](CC(N)=O)NC1=O` [d(CH2)5 [D-Ala^2] VAVP, [1-(β-mercapto-β,β-cyclopentamethylenepropionic acid), 2-D-alanine, 4-valine]-arginine vasopressin] ([dA]FVNCPRG-NH2; linker N-5 via X1), the “Antivasopressor pA2” value in test [1] is 5.79 ± 0.08.

These data come from patent US4399125A, “Novel antagonists of the antidiuretic action of arginine vasopressin” (priority 1981, dated 1983).
